Results as given in PMC7072645, “Targeting the Class A Carbapenemase GES-5 via Virtual Screening” (Biomolecules, 2020).

Assays:
[1] = molecular target: T1, GES-5 (Klebsiella pneumoniae, UniProt Q09HD0); assay type: biochemical; details: reporter substrate, purified recombinant GES-5
T1 construct: made in house; host or cells: E. coli BL21(DE3)
Method: For protein expression, competent E. coli BL21(DE3) cells (PROMEGA, Madison, WI, USA) were transformed with recombinant plasmid blaGES-5/pet24a(+) as reported. Protein purification was performed using an Äkta Prime plus chromatograph system (GE Healthcare Life Sciences, Freiburg, Germany). GES-5 (Uniprot ID Q09HD0) was conveniently purified in a single step using a Macro-Prep High Q resin (Bio-Rad, Hercules, CA, USA.).

[2] = molecular target: KPC-2 (Klebsiella pneumoniae, UniProt Q9F663); assay: KPC-2 inhibition assay, conducted as previously reported; assay type: biochemical; details: for % inhibition at [1mM] vs KPC-2: 1 mM inhibitor; for Ki: calculated from IC50 by Cheng-Prusoff; for LE vs. KPC-2: ligand efficiency from Ki vs KPC-2
Method: (§1) Reactions were monitored using a Jasco V730 spectrophotometer. […] In order to perform spectrophotometric tests, compounds were dissolved in dimethyl sulfoxide (DMSO) to a concentration of 25 mM and stored at −20 °C. […] The reaction was typically initiated by adding GES-5 (2 nM final concentration), previously dialyzed in the reaction buffer. […] For KPC-2 experiments, the protein was obtained, and assays were conducted as previously reported.

[3] = molecular target: T1, GES-5; assay: GES-5 hydrolysis inhibition, nitrocefin spectrophotometric assay; assay type: biochemical; details: for LE vs. GES-5: ligand efficiency from Ki vs GES-5
Method: as §1

[4] = tested on: O=C(Cc1cccs1)N[C@@H]1C(=O)N2C(C(=O)O)=C(/C=C/c3ccc([N+](=O)[O-])cc3[N+](=O)[O-])CS[C@H]12; assay: purified protein, by the assay type; details: other: reporter substrate, purified recombinant GES-5

T1 sequence (Q09HD0 19-287): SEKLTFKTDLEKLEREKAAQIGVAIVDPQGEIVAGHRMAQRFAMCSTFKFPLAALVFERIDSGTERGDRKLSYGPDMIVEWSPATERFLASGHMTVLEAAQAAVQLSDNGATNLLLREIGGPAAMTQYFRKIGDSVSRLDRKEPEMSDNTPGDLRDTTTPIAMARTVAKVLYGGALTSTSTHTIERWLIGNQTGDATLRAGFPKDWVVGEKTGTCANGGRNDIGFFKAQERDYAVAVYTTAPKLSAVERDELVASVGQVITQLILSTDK
Sequence of KPC-2 (Q9F663 25-293, looked up, species assumed): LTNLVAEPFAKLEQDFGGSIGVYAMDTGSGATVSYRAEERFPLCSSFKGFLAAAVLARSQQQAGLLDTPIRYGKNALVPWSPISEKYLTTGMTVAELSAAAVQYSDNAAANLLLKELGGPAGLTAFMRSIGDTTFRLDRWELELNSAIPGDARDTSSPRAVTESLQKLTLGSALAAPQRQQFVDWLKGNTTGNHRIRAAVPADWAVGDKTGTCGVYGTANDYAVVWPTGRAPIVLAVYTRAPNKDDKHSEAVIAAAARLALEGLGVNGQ

Molecule	Km [1] [µM]	% inhibition at [1mM] vs KPC-2 [2]	Ki [2] [µM]	LE vs. KPC-2 [2]	Ki [3] [µM]	LE vs. GES-5 [3]	% inhibition at [1mM] vs GES-5 [3] [%]	Km [4] [µM]
O=C(Cc1cccs1)N[C@@H]1C(=O)N2C(C(=O)O)=C(CSc3ccc([N+](=O)[O-])c(C(=O)O)c3)CS[C@H]12 [CENTA]	524							
COc1cc(Br)c(-c2nnn[nH]2)cc1OC [Compound 8]		at least 30%	350	0.30 kcal/mol/non-hydrogen atom	890	0.89 (0.27) kcal/mol/non-hydrogen atom		
O=C(O)c1cccc(S(=O)(=O)Nc2cccnc2)c1 [Compound 12]		at least 30%	1380	0.21 kcal/mol/non-hydrogen atom	1010	1.01 (0.22) kcal/mol/non-hydrogen atom		
Nc1nc(=O)n(CC(O)C(=O)O)cc1Br (centres unmarked) [Compound 13]		at least 30%	280	0.33 kcal/mol/non-hydrogen atom	810			
COc1ccc2[nH]c(C(=O)O)nc2c1 [Compound 43]			450	0.33 kcal/mol/non-hydrogen atom	660		41	
GES-5 (Klebsiella pneumoniae)								208
